Numbered stars: 1 amine (or outer) side, 2 acyl side, 3 side chain; on linkers, the order of the positions; unused ones are H or OH. Bridge positions count the residues as written; N and C are the ends. Square brackets hold non-standard residues; d marks the D form. Peptide text beside a SMILES is read from it. * marks the point of attachment. ξ: configuration not given here. Phe(4-COOH) = N[C@@H](Cc1ccc(C(=O)O)cc1)C(=O)O; Bip = N[C@@H](Cc1ccc(-c2ccccc2)cc1)C(=O)O; X18 = O=C(C(CC1CCC(F)(F)CC1)N[*:1])[*:2]; Phe(3-Me) = Cc1cccc(C[C@H](N)C(=O)O)c1; NH(CH2)12COOH = O=C(O)CCCCCCCCCCCCN*; X4 = O=C([C@@H](N[*:1])C1CNC1)[*:2]; Val(3-OH) = CC(C)(O)[C@H](N)C(=O)O; X15 = C[C@H](N)C(N[*:1])C(=O)[*:2]; 4Pal = N[C@@H](Cc1ccncc1)C(=O)O; ξVal(3-OH) = CC(C)(O)C(N)C(=O)O; Cha = N[C@@H](CC1CCCCC1)C(=O)O; Carboxymethyl = O=C(O)C*; Orn = NCCC[C@H](N)C(=O)O; Aun = NCCCCCCCCCCC(=O)O; Dab = NCC[C@H](N)C(=O)O; Nva = CCC[C@H](N)C(=O)O; AEEA = NCCOCCOCC(=O)O
The compounds below were run against T1, PD-1/PD-L1 interaction (PE-labeled human PD-L1-Ig binding to Jurkat cell line over-expressing human PD-1) (Homo sapiens, UniProt Q15116) (assay: Jurkat-PD-1 Cell Binding High-Content Screening Assay (CBA)). Details: Jurkat cell line over-expressing human PD-1; PE-labeled PD-L1-Ig 20 nM final; read-out: Jurkat hPD1-PDL1 IC50.
T1 construct: expressed in transfected cells; host or cells: Jurkat
Assay type: cell-based
Method in brief: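 Human PD-L1-Ig carrying a covalent PE label on its Ig tag serves as the probe, applied at 20 nM final to compound-treated (2 h, 37° C) Jurkat-hPD-1 cells in medium with 10% fetal calf serum. After one hour, fixation and nuclear staining precede high-content image analysis.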

T1 sequence (Q15116 25-288): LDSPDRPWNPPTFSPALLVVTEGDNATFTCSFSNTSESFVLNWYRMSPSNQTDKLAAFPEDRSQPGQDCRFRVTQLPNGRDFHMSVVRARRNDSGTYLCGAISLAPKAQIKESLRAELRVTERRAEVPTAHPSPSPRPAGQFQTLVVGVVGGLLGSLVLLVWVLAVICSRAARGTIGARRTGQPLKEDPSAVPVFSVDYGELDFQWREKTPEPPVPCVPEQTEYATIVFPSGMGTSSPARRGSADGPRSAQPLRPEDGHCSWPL

How did the IC50 turn out when `CCC[C@@H]1NC(=O)CSC[C@@H](C(=O)N[C@@H](CCN)C(=O)NCCOCCOCC(=O)NCCCCCCCCCCC(=O)O)NC(=O)[C@H](CO)NC(=O)[C@H](C(C)(C)O)NC(=O)[C@H](CC2CCCCC2)NC(=O)[C@H](CCN)NC(=O)[C@@H](CC(C)C)NC(=O)[C@H](CCCN)NC(=O)[C@H](Cc2ccc(OCC(=O)O)cc2)NC(=O)[C@H](Cc2ccc(-c3ccccc3)cc2)NC(=O)[C@H](Cc2ccc(OCC(=O)O)cc2)NC(=O)[C@H](Cc2cccc(C)c2)NC(=O)[C@H](CC(=O)O)NC(=O)[C@H](Cc2ccc(OCC(=O)O)cc2)NC1=O` [Compound 2246] ({CH2CO}-[Nva]Y(Carboxymethyl)D[Phe(3-Me)]Y(Carboxymethyl)[Bip]Y(Carboxymethyl)[Orn][dL][Dab][Cha][Val(3-OH)]SC[Dab][AEEA][Aun]-OH; thioether N-14) was run?
The IC50 was 0.6 nM.

With `CCC[C@@H]1NC(=O)CSC[C@@H](C(=O)N[C@@H](CCN)C(=O)NCCOCCOCC(=O)NCCCCCCCCCCC(=O)O)NC(=O)[C@H](CO)NC(=O)[C@H](C(C)(C)O)NC(=O)[C@H](CC2CCCCC2)NC(=O)[C@H](CCN)NC(=O)[C@@H](CC(C)C)NC(=O)[C@H](CCCN)NC(=O)[C@H](Cc2ccc(OCC(=O)O)cc2)NC(=O)[C@H](Cc2ccc(-c3ccccc3)cc2)NC(=O)[C@H](Cc2ccc(OCC(=O)O)cc2)NC(=O)[C@H](Cc2cccc(C)c2)NC(=O)[C@H](CC(=O)O)NC(=O)[C@H](Cc2ccc(C(=O)O)cc2)NC1=O` [Compound 2247] ({CH2CO}-[Nva][Phe(4-COOH)]D[Phe(3-Me)]Y(Carboxymethyl)[Bip]Y(Carboxymethyl)[Orn][dL][Dab][Cha][Val(3-OH)]SC[Dab][AEEA][Aun]-OH; thioether N-14) as the compound, how does the IC50 read?
The IC50 was 1.3 nM.

How did the IC50 turn out when `Cc1cccc(C[C@@H]2NC(=O)[C@H](CC(=O)O)NC(=O)[C@H](Cc3ccc(O)cc3)NC(=O)[C@H](CCCNC(=N)N)NC(=O)CSC[C@@H](C(=O)N[C@@H](CCN)C(=O)NCCOCCOCC(=O)NCCCCCCCCCCC(=O)O)NC(=O)[C@H](CO)NC(=O)[C@H](C(C)(C)O)NC(=O)[C@H](CC3CCCCC3)NC(=O)[C@H](CCN)NC(=O)[C@@H](CC(C)C)NC(=O)[C@H](CCCN)NC(=O)[C@H](Cc3ccc(OCC(=O)O)cc3)NC(=O)[C@H](Cc3ccc(-c4ccccc4)cc3)NC(=O)[C@H](Cc3ccc(OCC(=O)O)cc3)NC2=O)c1` [Compound 2248] ({CH2CO}-RYD[Phe(3-Me)]Y(Carboxymethyl)[Bip]Y(Carboxymethyl)[Orn][dL][Dab][Cha][Val(3-OH)]SC[Dab][AEEA][Aun]-OH; thioether N-14) was run?
The IC50 was 5.1 nM.

Which IC50 does the source give for `Cc1cccc(C[C@@H]2NC(=O)[C@H](CC(=O)O)NC(=O)[C@H](Cc3ccc(OCC(=O)O)cc3)NC(=O)[C@H]([C@@H](C)O)NC(=O)CSC[C@@H](C(=O)N[C@@H](CCN)C(=O)NCCOCCOCC(=O)NCCCCCCCCCCCCC(=O)O)NC(=O)[C@H](CO)NC(=O)[C@H](C(C)(C)O)NC(=O)[C@H](CC3CCCCC3)NC(=O)[C@H](CCN)NC(=O)[C@@H](CC(C)C)NC(=O)[C@H](CCCN)NC(=O)[C@H](Cc3ccc(OCC(=O)O)cc3)NC(=O)[C@H](Cc3ccc(-c4ccccc4)cc3)NC(=O)[C@H](Cc3ccc(OCC(=O)O)cc3)NC2=O)c1` [Compound 2249] ({CH2CO}-TY(Carboxymethyl)D[Phe(3-Me)]Y(Carboxymethyl)[Bip]Y(Carboxymethyl)[Orn][dL][Dab][Cha][Val(3-OH)]SC[Dab][AEEA]-{NH(CH2)12COOH}; thioether N-14) here?
The IC50 was 16 nM.

Which IC50 does the source give for `Cc1cccc(C[C@@H]2NC(=O)[C@H](CC(=O)O)NC(=O)[C@H](Cc3ccc(O)cc3)NC(=O)[C@H]([C@@H](C)O)NC(=O)CSC[C@@H](C(=O)N[C@@H](CCN)C(=O)NCCOCCOCC(=O)NCCCCCCCCCCCCC(=O)O)NC(=O)[C@H](CO)NC(=O)[C@H](C(C)(C)O)NC(=O)[C@H](CC3CCCCC3)NC(=O)[C@H](CCN)NC(=O)[C@@H](CC(C)C)NC(=O)[C@H](CCCN)NC(=O)[C@H](Cc3ccc(OCC(=O)O)cc3)NC(=O)[C@H](Cc3ccc(-c4ccccc4)cc3)NC(=O)[C@H](Cc3ccc(OCC(=O)O)cc3)NC2=O)c1` [Compound 2250] ({CH2CO}-TYD[Phe(3-Me)]Y(Carboxymethyl)[Bip]Y(Carboxymethyl)[Orn][dL][Dab][Cha][Val(3-OH)]SC[Dab][AEEA]-{NH(CH2)12COOH}; thioether N-14) here?
Its IC50 is 18 nM.

Which IC50 does the source give for `Cc1cccc(C[C@@H]2NC(=O)[C@H](CC(=O)O)NC(=O)[C@H](Cc3ccc(OCC(=O)O)cc3)NC(=O)[C@H](Cc3ccncc3)NC(=O)CSC[C@@H](C(=O)N[C@@H](CCN)C(=O)NCCOCCOCC(=O)NCCCCCCCCCCCCC(=O)O)NC(=O)[C@H](CO)NC(=O)[C@H](C(C)(C)O)NC(=O)[C@H](CC3CCCCC3)NC(=O)[C@H](CCN)NC(=O)[C@@H](CC(C)C)NC(=O)[C@H](CCCN)NC(=O)[C@H](Cc3ccc(OCC(=O)O)cc3)NC(=O)[C@H](Cc3ccc(-c4ccccc4)cc3)NC(=O)[C@H](Cc3ccc(OCC(=O)O)cc3)NC2=O)c1` [Compound 2251] ({CH2CO}-[4Pal]Y(Carboxymethyl)D[Phe(3-Me)]Y(Carboxymethyl)[Bip]Y(Carboxymethyl)[Orn][dL][Dab][Cha][Val(3-OH)]SC[Dab][AEEA]-{NH(CH2)12COOH}; thioether N-14) here?
Its IC50 is 10.5 nM.

`CCC[C@@H]1NC(=O)CSC[C@@H](C(=O)N[C@@H](CCN)C(=O)NCCOCCOCC(=O)NCCCCCCCCCCCCC(=O)O)NC(=O)[C@H](CO)NC(=O)C(C(C)(C)O)NC(=O)[C@H](CC2CCCCC2)NC(=O)[C@H](CCN)NC(=O)[C@@H](CC(C)C)NC(=O)[C@H](CCCN)NC(=O)[C@H](Cc2ccc(OCC(=O)O)cc2)NC(=O)[C@H](Cc2ccc(-c3ccccc3)cc2)NC(=O)[C@H](Cc2ccc(OCC(=O)O)cc2)NC(=O)[C@H](Cc2cccc(C)c2)NC(=O)[C@H](CC(=O)O)NC(=O)[C@H](Cc2ccc(OCC(=O)O)cc2)NC1=O` (stereo partly drawn) [Compound 2252] ({CH2CO}-[Nva]Y(Carboxymethyl)D[Phe(3-Me)]Y(Carboxymethyl)[Bip]Y(Carboxymethyl)[Orn][dL][Dab][Cha][ξVal(3-OH)]SC[Dab][AEEA]-{NH(CH2)12COOH}; thioether N-14) was tested. Which IC50 did it give?
Its IC50 is 13.5 nM.

Which IC50 does the source give for `Cc1cccc(C[C@@H]2NC(=O)[C@H](CC(=O)O)NC(=O)[C@H](Cc3ccc(OCC(=O)O)cc3)NC(=O)[C@H](CCCNC(=N)N)NC(=O)CSC[C@@H](C(=O)N[C@@H](CCN)C(=O)NCCOCCOCC(=O)NCCCCCCCCCCCCC(=O)O)NC(=O)[C@H](CO)NC(=O)[C@H](C(C)(C)O)NC(=O)[C@H](CC3CCCCC3)NC(=O)[C@H](CCN)NC(=O)[C@@H](CC(C)C)NC(=O)[C@H](CCCN)NC(=O)[C@H](Cc3ccc(OCC(=O)O)cc3)NC(=O)[C@H](Cc3ccc(-c4ccccc4)cc3)NC(=O)[C@H](Cc3ccc(OCC(=O)O)cc3)NC2=O)c1` [Compound 2253] ({CH2CO}-RY(Carboxymethyl)D[Phe(3-Me)]Y(Carboxymethyl)[Bip]Y(Carboxymethyl)[Orn][dL][Dab][Cha][Val(3-OH)]SC[Dab][AEEA]-{NH(CH2)12COOH}; thioether N-14) here?
The IC50 was 9.1 nM.

With `CCC[C@@H]1NC(=O)CSC[C@@H](C(=O)N[C@@H](CCN)C(=O)NCCOCCOCC(=O)NCCCCCCCCCCCCC(=O)O)NC(=O)[C@H](CO)NC(=O)[C@H](C(C)(C)O)NC(=O)[C@H](CC2CCCCC2)NC(=O)[C@H](CCN)NC(=O)[C@@H](CC(C)C)NC(=O)[C@H](CCCN)NC(=O)[C@H](Cc2ccc(OCC(=O)O)cc2)NC(=O)[C@H](Cc2ccc(-c3ccccc3)cc2)NC(=O)[C@H](Cc2ccc(OCC(=O)O)cc2)NC(=O)[C@H](Cc2cccc(C)c2)NC(=O)[C@H](CC(=O)O)NC(=O)[C@H](Cc2ccc(C(=O)O)cc2)NC1=O` [Compound 2254] ({CH2CO}-[Nva][Phe(4-COOH)]D[Phe(3-Me)]Y(Carboxymethyl)[Bip]Y(Carboxymethyl)[Orn][dL][Dab][Cha][Val(3-OH)]SC[Dab][AEEA]-{NH(CH2)12COOH}; thioether N-14) as the compound, how does the IC50 read?
The IC50 was 10.1 nM.

`Cc1cccc(C[C@@H]2NC(=O)[C@H](CC(=O)O)NC(=O)[C@H](Cc3ccc(OCC(=O)O)cc3)NC(=O)[C@H](C3CNC3)NC(=O)CSC[C@@H](C(=O)N[C@@H](CCN)C(=O)NCCCCCCCCCCCCC(=O)O)NC(=O)[C@H](CO)NC(=O)[C@H](C(C)(C)O)NC(=O)[C@H](CC3CCCCC3)NC(=O)[C@H](CCN)NC(=O)[C@@H](CC(C)C)NC(=O)[C@H](CCCN)NC(=O)[C@H](Cc3ccc(OCC(=O)O)cc3)NC(=O)[C@H](Cc3ccc(-c4ccccc4)cc3)NC(=O)[C@H](Cc3ccc(OCC(=O)O)cc3)NC2=O)c1` [Compound 2256] ({CH2CO}-[X4]Y(Carboxymethyl)D[Phe(3-Me)]Y(Carboxymethyl)[Bip]Y(Carboxymethyl)[Orn][dL][Dab][Cha][Val(3-OH)]SC[Dab]-{NH(CH2)12COOH}; thioether N-14) was tested. Which IC50 did it give?
The IC50 was 13.6 nM.

`Cc1cccc(C[C@@H]2NC(=O)[C@H](CC(=O)O)NC(=O)[C@H](Cc3ccc(OCC(=O)O)cc3)NC(=O)C([C@H](C)N)NC(=O)CSC[C@@H](C(=O)N[C@@H](CCN)C(=O)NCCCCCCCCCCCCC(=O)O)NC(=O)[C@H](CO)NC(=O)[C@H](C(C)(C)O)NC(=O)[C@H](CC3CCCCC3)NC(=O)[C@H](CCN)NC(=O)[C@@H](CC(C)C)NC(=O)[C@H](CCCN)NC(=O)[C@H](Cc3ccc(OCC(=O)O)cc3)NC(=O)[C@H](Cc3ccc(-c4ccccc4)cc3)NC(=O)[C@H](Cc3ccc(OCC(=O)O)cc3)NC2=O)c1` (stereo partly drawn) [Compound 2257] ({CH2CO}-[X15]Y(Carboxymethyl)D[Phe(3-Me)]Y(Carboxymethyl)[Bip]Y(Carboxymethyl)[Orn][dL][Dab][Cha][Val(3-OH)]SC[Dab]-{NH(CH2)12COOH}; thioether N-14) was tested. Which IC50 did it give?
The IC50 was 11.1 nM.

Which IC50 does the source give for `Cc1cccc(C[C@@H]2NC(=O)[C@H](CC(=O)O)NC(=O)[C@H](Cc3ccc(OCC(=O)O)cc3)NC(=O)C(CC3CCC(F)(F)CC3)NC(=O)CSC[C@@H](C(=O)N[C@@H](CCN)C(=O)NCCCCCCCCCCCCC(=O)O)NC(=O)[C@H](CO)NC(=O)[C@H](C(C)(C)O)NC(=O)[C@H](CC3CCCCC3)NC(=O)[C@H](CCN)NC(=O)[C@@H](CC(C)C)NC(=O)[C@H](CCCN)NC(=O)[C@H](Cc3ccc(OCC(=O)O)cc3)NC(=O)[C@H](Cc3ccc(-c4ccccc4)cc3)NC(=O)[C@H](Cc3ccc(OCC(=O)O)cc3)NC2=O)c1` (stereo partly drawn) [Compound 2258] ({CH2CO}-[X18]Y(Carboxymethyl)D[Phe(3-Me)]Y(Carboxymethyl)[Bip]Y(Carboxymethyl)[Orn][dL][Dab][Cha][Val(3-OH)]SC[Dab]-{NH(CH2)12COOH}; thioether N-14) here?
The IC50 was 48.9 nM.

— US20260022142A1, “MACROCYCLIC IMMUNOMODULATORS” (Bristol-Myers Squibb Company, priority 2022, published 2026)
